In patent publication US6737383B1, “Herbicidal oxadiazolidines” (priority 1999, dated 2004):

Key:
wild oat = assay: Test B pre/postemergence wild oat; format: in vivo, Avena fatua
In short: (§1)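 Response is a visual 0-to-10 score relative to untreated plants, where 0 means no effect and 10 means complete control, taken twelve to sixteen days after application. Treatments went onto soil at planting and onto foliage of 1- to 4-leaf plants, using a surfactant-containing non-phytotoxic solvent.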

soybean = assay: Test B pre/postemergence soybean; format: in vivo, Glycine max
In short: as §1

blackgrass = assay: Test B pre/postemergence blackgrass; format: in vivo, Alopecurus myosuroides
In short: as §1

pigweed = assay: Test B pre/postemergence pigweed; format: in vivo, Amaranthus retroflexus
In short: as §1

purple nutsedge = assay: Test B pre/postemergence purple nutsedge; format: in vivo, Cyperus rotundus
In short: as §1

rape = assay: Test B pre/postemergence rape; format: in vivo, Brassica napus
In short: as §1

crabgrass = assay: Test B pre/postemergence crabgrass; format: in vivo, Digitaria sanguinalis
In short: as §1

wheat = assay: Test B pre/postemergence wheat; format: in vivo, Triticum aestivum
In short: as §1

duck salad = assay: Test B flood test duck salad; format: in vivo, Heteranthera limosa
In short: (§2)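 Plants were grown to the 2-leaf stage before treatment with test chemical, then held in a greenhouse for twelve to sixteen days. Injury was visually rated against untreated controls on a 0–10 scale, where 0 is no effect and 10 is complete control.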

velvetleaf = assay: Test B pre/postemergence velvetleaf; format: in vivo, Abutilon theophrasti
In short: as §1

surinam grass = assay: Test B pre/postemergence surinam grass; format: in vivo, Brachiaria decumbens
In short: as §1

morningglory = assay: Test B pre/postemergence morningglory; format: in vivo, Ipomoea hederacea
In short: as §1

bedstraw = assay: Test B pre/postemergence bedstraw; format: in vivo, Galium aparine; conditions: Postemergence
In short: as §1

giant foxtail = assay: Test B pre/postemergence giant foxtail; format: in vivo, Setaria faberii
In short: as §1

rice = assay: Test B flood test rice; format: in vivo, Oryza sativa
In short: as §2

corn = assay: Test B pre/postemergence corn; format: in vivo, Zea mays
In short: as §1

[1] = Postemergence, Rate 250 g/ha, scale 0 to 10
[2] = Postemergence, Rate 500 g/ha, scale of 0 to 10 where 0 is no effect and 10 is complete control
[3] = Preemergence, Rate 62 g/ha, scale 0 to 10 (0 no effect, 10 complete control)
[4] = Preemergence, Rate 125 g/ha, scale of 0 to 10 where 0 is no effect and 10 is complete control
[5] = Preemergence, Rate 250 g/ha, scale 0 to 10, 0 is no effect, 10 is complete control
[6] = Preemergence, Rate 500 g/ha, scale 0 to 10, 0 is no effect, 10 is complete control
[7] = Rate 125 g/ha, Postemergence, scale 0 to 10, 0 is no effect, 10 is complete control
[8] = Preemergence, Rate 250 g/ha, scale of 0 to 10 where 0 is no effect and 10 is complete control
[9] = Rate 62 g/ha, Postemergence, scale of 0 to 10 where 0 is no effect and 10 is complete control
[10] = Postemergence block (flood test species), Rate 250 g/ha, scale 0 to 10
[11] = Postemergence section (flood test species), Rate 500 g/ha, scale of 0 to 10 where 0 is no effect and 10 is complete control
[12] = Rate 125 g/ha, Postemergence section (flood test species), scale 0 to 10, 0 is no effect, 10 is complete control

Structure (SMILES): CC(C)N(C(=O)n1oc(=O)n(C[Si](C)(C)c2ccccc2)c1=O)c1ccc(Cl)cc1 [Compound 424]
- Wild oats plant response rating (wild oat; [1]): 0
- Wild oats plant response rating (wild oat; [2]): 0
- Plant response rating, Wild oats (wild oat; [3]): 0
- Plant response rating, Wild oats (wild oat; [4]): 0
- Wild oats plant response rating (wild oat; [5]): 0
- Wild oats plant response rating (wild oat; [6]): 0
- Wild oats plant response rating (wild oat; [7]): 0
- Soybean plant response rating (soybean; [1]): 1
- Soybean plant response rating (soybean; [2]): 2
- Plant response rating, Soybean (soybean; [3]): 0
- Plant response rating, Soybean (soybean; [4]): 0
- Soybean plant response rating (soybean; [5]): 0
- Soybean plant response rating (soybean; [6]): 0
- Soybean plant response rating (soybean; [7]): 0
- Blackgrass plant response rating (blackgrass; [1]): 0
- Blackgrass plant response rating (blackgrass; [2]): 0
- Plant response rating, Blackgrass (blackgrass; [3]): 0
- Plant response rating, Blackgrass (blackgrass; [4]): 0
- Blackgrass plant response rating (blackgrass; [8]): 0
- Blackgrass plant response rating (blackgrass; [6]): 0
- Blackgrass plant response rating (blackgrass; [9]): 0
- Blackgrass plant response rating (blackgrass; [7]): 0
- Redroot pigweed plant response rating (pigweed; [1]): 0
- Redroot pigweed plant response rating (pigweed; [2]): 0
- Plant response rating, Redroot pigweed (pigweed; [3]): 0
- Plant response rating, Redroot pigweed (pigweed; [4]): 0
- Redroot pigweed plant response rating (pigweed; [5]): 0
- Redroot pigweed plant response rating (pigweed; [6]): 0
- Redroot pigweed plant response rating (pigweed; [7]): 0
- Nutsedge plant response rating (purple nutsedge; [1]): 0
- Nutsedge plant response rating (purple nutsedge; [2]): 0
- Plant response rating, Nutsedge (purple nutsedge; [3]): 0
- Plant response rating, Nutsedge (purple nutsedge; [4]): 0
- Nutsedge plant response rating (purple nutsedge; [5]): 0
- Nutsedge plant response rating (purple nutsedge; [6]): 0
- Nutsedge plant response rating (purple nutsedge; [7]): 0
- Rape plant response rating (rape; [1]): 0
- Rape plant response rating (rape; [2]): 0
- Plant response rating, Rape (rape; [3]): 0
- Plant response rating, Rape (rape; [4]): 0
- Rape plant response rating (rape; [5]): 0
- Rape plant response rating (rape; [6]): 0
- Rape plant response rating (rape; [7]): 0
- Crabgrass plant response rating (crabgrass; [1]): 0
- Crabgrass plant response rating (crabgrass; [2]): 0
- Plant response rating, Crabgrass (crabgrass; [3]): 0
- Plant response rating, Crabgrass (crabgrass; [4]): 0
- Crabgrass plant response rating (crabgrass; [5]): 0
- Crabgrass plant response rating (crabgrass; [6]): 0
- Crabgrass plant response rating (crabgrass; [9]): 0
- Crabgrass plant response rating (crabgrass; [7]): 0
- Wheat plant response rating (wheat; [1]): 0
- Wheat plant response rating (wheat; [2]): 0
- Plant response rating, Wheat (wheat; [3]): 0
- Plant response rating, Wheat (wheat; [4]): 0
- Wheat plant response rating (wheat; [5]): 0
- Wheat plant response rating (wheat; [6]): 0
- Wheat plant response rating (wheat; [7]): 0
- Ducksalad plant response rating (duck salad; [10]): 0
- Ducksalad plant response rating (duck salad; [11]): 0
- Ducksalad plant response rating (duck salad; Rate 62 g/ha, Postemergence (flood test species), scale of 0 to 10 where 0 is no effect and 10 is complete control): 0
- Ducksalad plant response rating (duck salad; [12]): 0
- Velvetleaf plant response rating (velvetleaf; [1]): 0
- Velvetleaf plant response rating (velvetleaf; [2]): 0
- Plant response rating, Velvetleaf (velvetleaf; [3]): 0
- Plant response rating, Velvetleaf (velvetleaf; [4]): 0
- Velvetleaf plant response rating (velvetleaf; [5]): 0
- Velvetleaf plant response rating (velvetleaf; [6]): 0
- Velvetleaf plant response rating (velvetleaf; [7]): 0
- B. signalgrass plant response rating (surinam grass; Postemergence, Rate 250 g/ha, scale 0 to 10, 0 no effect, 10 complete control): 0
- B. signalgrass plant response rating (surinam grass; [2]): 0
- Plant response rating, B. signalgrass (surinam grass; [3]): 0
- Plant response rating, B. signalgrass (surinam grass; [4]): 0
- B. signalgrass plant response rating (surinam grass; [8]): 0
- B. signalgrass plant response rating (surinam grass; Preemergence, Rate 500 g/ha, scale of 0 to 10 where 0 is no effect and 10 is complete control): 0
- B. signalgrass plant response rating (surinam grass; [9]): 0
- B. signalgrass plant response rating (surinam grass; [7]): 0
- Morningglory plant response rating (morningglory; [1]): 0
- Morningglory plant response rating (morningglory; [2]): 1
- Plant response rating, Morningglory (morningglory; [3]): 0
- Plant response rating, Morningglory (morningglory; [4]): 0
- Morningglory plant response rating (morningglory; [5]): 0
- Morningglory plant response rating (morningglory; [6]): 0
- Morningglory plant response rating (morningglory; [7]): 0
- Bedstraw plant response rating (bedstraw; Rate 250 g/ha, scale 0 to 10): 0
- Bedstraw plant response rating (bedstraw; Rate 500 g/ha, scale of 0 to 10 where 0 is no effect and 10 is complete control): 0
- Bedstraw plant response rating (bedstraw; Rate 62 g/ha, scale of 0 to 10 where 0 is no effect and 10 is complete control): 0
- Bedstraw plant response rating (bedstraw; Rate 125 g/ha, scale 0 to 10, 0 is no effect, 10 is complete control): 0
- Giant foxtail plant response rating (giant foxtail; [1]): 0
- Giant foxtail plant response rating (giant foxtail; [2]): 0
- Plant response rating, Giant foxtail (giant foxtail; [3]): 0
- Plant response rating, Giant foxtail (giant foxtail; [4]): 0
- Giant foxtail plant response rating (giant foxtail; [5]): 0
- Giant foxtail plant response rating (giant foxtail; [6]): 0
- Giant foxtail plant response rating (giant foxtail; [9]): 0
- Giant foxtail plant response rating (giant foxtail; [7]): 0
- Rice plant response rating (rice; [10]): 0
- Rice plant response rating (rice; [11]): 0
- Rice plant response rating (rice; [12]): 0
- Corn plant response rating (corn; [1]): 0
- Corn plant response rating (corn; [2]): 0
- Plant response rating, Corn (corn; [3]): 0
- Plant response rating, Corn (corn; [4]): 0
- Corn plant response rating (corn; [5]): 0
- Corn plant response rating (corn; [6]): 0
- Corn plant response rating (corn; [9]): 0
- Corn plant response rating (corn; [7]): 0
